Data taken from the NIST ThermoML archive (doi:10.1021/acs.jced.5b00242).

Tests used:
[1] = xn = mol fraction of the nth substance listed; details: 101 kPa, Liquid; for viscosity: Stabinger Viscometer; for mass density: Vibrating tube method
[2] = refractive index (Na D-line) (dimensionless); xn = mol fraction of the nth substance listed; details: 101 kPa, Liquid, Standard Abbe refractometry

CCn1cc[n+](C)c1.NCCS(=O)(=O)[O-] [1-ethyl-3-methylimidazolium taurinate] + CCn1cc[n+](C)c1.N#C[C-](C#N)C#N
Details | mass density, [1] [kg/m3] | refractive index, [2] | viscosity, [1] [mPa·s]
293.15 K, x2 = 0 | 1255 | 1.5135 | 760.89
293.15 K, x2 = 0.2503 | 1207.7 | 1.51268 | 250.33
293.15 K, x2 = 0.5001 | 1164.8 | 1.51322 | 84.5
293.15 K, x2 = 0.7496 | 1124.1 | 1.51365 | 35.42
298.15 K, x2 = 0 | 1251.5 | 1.51217 | 514.67
298.15 K, x2 = 0.2503 | 1204.4 | 1.51131 | 180.68
298.15 K, x2 = 0.5001 | 1161.4 | 1.51166 | 64.77
298.15 K, x2 = 0.7496 | 1120.6 | 1.5121 | 28.77
303.15 K, x2 = 0 | 1248.1 | 1.51084 | 359.36
303.15 K, x2 = 0.2503 | 1201.1 | 1.50995 | 133.6
303.15 K, x2 = 0.5001 | 1158 | 1.5102 | 50.77
303.15 K, x2 = 0.7496 | 1117.2 | 1.51054 | 23.71
308.15 K, x2 = 0 | 1244.8 | 1.5095 | 258.04
308.15 K, x2 = 0.2503 | 1197.9 | 1.50858 | 101.33
308.15 K, x2 = 0.5001 | 1154.7 | 1.50871 | 40.59
308.15 K, x2 = 0.7496 | 1113.8 | 1.50894 | 19.84
313.15 K, x2 = 0 | 1241.6 | 1.50816 | 190.44
313.15 K, x2 = 0.2503 | 1194.7 | 1.50716 | 78.59
313.15 K, x2 = 0.5001 | 1151.4 | 1.50723 | 33.04
313.15 K, x2 = 0.7496 | 1110.4 | 1.50736 | 16.61
318.15 K, x2 = 0 | 1238.6 | 1.5068 | 143.31
318.15 K, x2 = 0.2503 | 1191.7 | 1.50578 | 61.69
318.15 K, x2 = 0.5001 | 1148.2 | 1.50574 | 27.27
318.15 K, x2 = 0.7496 | 1107.2 | 1.50576 | 14.44
323.15 K, x2 = 0 | 1235.5 | 1.50543 | 110.35
323.15 K, x2 = 0.2503 | 1188.5 | 1.50436 | 49.65
323.15 K, x2 = 0.5001 | 1145 | 1.50428 | 22.83
323.15 K, x2 = 0.7496 | 1103.8 | 1.5042 | 12.51
328.15 K, x2 = 0 | 1232.4 | 1.50403 | 86.59
328.15 K, x2 = 0.2503 | 1185.3 | 1.50296 | 40.56
328.15 K, x2 = 0.5001 | 1141.7 | 1.50286 | 19.37
328.15 K, x2 = 0.7496 | 1100.5 | 1.50267 | 10.94
333.15 K, x2 = 0 | 1229.2 | 1.5027 | 69.36
333.15 K, x2 = 0.2503 | 1182.1 | 1.50159 | 33.69
333.15 K, x2 = 0.5001 | 1138.4 | 1.50142 | 16.6
333.15 K, x2 = 0.7496 | 1097.2 | 1.50113 | 9.52
338.15 K, x2 = 0 | 1226.1 | 1.50136 | 56.05
338.15 K, x2 = 0.2503 | 1179 | 1.50019 | 28.15
338.15 K, x2 = 0.5001 | 1135.2 | 1.49996 | 14.4
338.15 K, x2 = 0.7496 | 1093.9 | 1.49959 | 8.62
343.15 K, x2 = 0 | 1223 | 1.49997 | 46.1
343.15 K, x2 = 0.2503 | 1175.9 | 1.49878 | 23.86
343.15 K, x2 = 0.5001 | 1132 | 1.49854 | 12.59
343.15 K, x2 = 0.7496 | 1090.6 | 1.4981 | 7.72
348.15 K, x2 = 0 | 1219.9 | 1.4986 | 38.4
348.15 K, x2 = 0.2503 | 1172.7 | 1.49742 | 20.46
348.15 K, x2 = 0.5001 | 1128.8 | 1.49709 | 11.1
348.15 K, x2 = 0.7496 | 1087.3 | 1.49657 | 6.96
353.15 K, x2 = 0 | 1216.8 | 1.49726 | 32.53
353.15 K, x2 = 0.2503 | 1169.4 | 1.49603 | 17.79
353.15 K, x2 = 0.5001 | 1125.6 | 1.49563 | 9.83
353.15 K, x2 = 0.7496 | 1083.9 | 1.49505 | 6.19
